From PubChem BioAssay AID463199 (Broad Institute, 2010) come the findings set out here.

Usually AC50 stands for the midpoint of the concentration-response curve, whichever way the signal moves.

The source made the active and inactive calls.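 Rule for the calls: active = AC50, the dose giving half-maximal effect, exceeds a fixed cutoff for a compound that rescues yeast growth under heat; inactive = the rest, inconclusive results apart.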 Some results are limits rather than exact numbers.

The assay has as its system S. cerevisiae Burl-1 ts mutant growth, BacTiter-Glo, 38.5C 24 h. Put plainly: restored growth of temperature-sensitive Burl-1 yeast – whole organism, S. cerevisiae, Burl-1 ts mutant, luminescence, counter-screen for SUMOylation pathway inhibitor project, dose response (AID 463199).
On to `O=S(=O)(Nc1cccc2cn[nH]c12)c1ccc(F)cc1`, for which the AC50 was > 42 µM (inactive).
For `CCN(C(=S)NCCOC)c1cccc2ccccc12`, the AC50 is > 42 µM (inactive).
Next, `CCc1ccc2[nH]c(=O)c(C(c3nnnn3Cc3ccccc3)N3CCOCC3)cc2c1` (centres undefined): > 42 µM (inactive); `COc1cccc(/C=N/n2cnc3ccccc32)c1OC`: > 42 µM (inactive).
Regarding `CC1=C/C(=N\OS(=O)(=O)c2ccccc2)C(C(C)C)=CC1=O`, the AC50 was > 42 µM (inactive).
On to `COCCn1c(N)c(N(Cc2ccccc2)C(=O)CN2C(=O)NC(C)(c3ccccc3)C2=O)c(=O)[nH]c1=O` (centres undefined), for which the half-maximal activity concentration (AC50) is 39.8 µM.
Next, `CC1(C)CC(=O)C=C(OC(=O)c2ccc(Cl)cc2)C1`: > 42 µM (inactive); `C/C(O)=C(\N=Nc1cc(C)ccc1O)C(N)=O`: > 42 µM (inactive).
With `CC1(C)C=C(c2ccc(O)cc2)CC(C)(C)N1` the figure was > 42 µM (inactive); with `CCN(CC)S(=O)(=O)c1ccc(N2CCCC2)c(C(=O)OCC(=O)Nc2cc(C)on2)c1`, > 42 µM (inactive); with `CCOC(=O)Cc1csc(NC(=O)NC2(C(F)(F)F)Oc3ccccc3O2)n1`, > 42 µM (inactive).
`COc1cc(SC)ccc1C(=O)N1CCCCCC1`: the AC50 is > 42 µM (inactive).
With `O=C(O)CCSc1ccc([N+](=O)[O-])cc1[N+](=O)[O-]` the figure was > 42 µM (inactive); with `CCCCN(C/C=C/c1ccccc1OC)Cc1ccccc1`, > 42 µM (inactive).
As to `COc1ccccc1NC(=O)c1ccc(-n2ccnc2)c([N+](=O)[O-])c1`, the AC50 is > 42 µM (inactive).
With `Cc1cccc(/C=N/NC(=O)Cc2cccs2)c1` the figure was > 42 µM (inactive).
With `COc1ccc2c(c1)OC[C@H]1[C@H]2N2C(=O)c3ccccc3NC(=O)[C@@]2(C)[C@H]1c1ccccc1` the figure was > 42 µM (inactive).
For the molecule `Cc1cc(C)cc(C(=O)N2CCC3(CC2)NCCc2[nH]cnc23)c1`, the AC50 was > 42 µM (inactive).
With `Cc1cc(S(=O)(=O)N2CCCCC2CCNC(=O)C(=O)NCC2CCCO2)ccc1F` (centres undefined) the figure was > 42 µM (inactive).
With `COc1ccccc1-c1sc2ccccc2c1-c1ccc2c(c1)OCO2` the figure was > 42 µM (inactive); with `Cc1nc(-c2ccncc2)sc1C(=O)Nc1ccc(Br)cc1`, > 42 µM (inactive); with `O=[N+]([O-])c1nn(-c2ccc(Cl)cc2)n(O)c1=NCc1ccccc1Cl`, > 42 µM (inactive).
`Cc1ccc(/C=C/C(=O)O)cc1S(=O)(=O)N(CCO)CCO`: the AC50 is > 42 µM (inactive).
For `CN(C)CC/C=C1/c2cc(F)ccc2Sc2ccc(Cl)cc21`, the AC50 is > 42 µM (inactive).
As for `CCOC(=O)c1ccc(NC(=S)NCCCN2CCOCC2)cc1`, the AC50 was > 42 µM (inactive).
As for `Cc1ccc(-n2nnnc2SCC#N)cc1`, the AC50 is > 42 µM (inactive).
On to `COc1ccc(NC(=O)Nc2ccccc2C(=O)N2CCCC2)cc1`, for which the AC50 was 1.83 µM.
Consider `COCc1nnc(NC(=O)CC(C)C)s1`, for which the AC50 was > 42 µM (inactive).
With `Cc1cc(C)cc(C(=O)Oc2cc(C)[nH]c(=O)c2[N+](=O)[O-])c1` the figure was > 42 µM (inactive); with `C=C(C)C(=O)Nc1cccnc1Oc1ccc(F)cc1F`, > 42 µM (inactive).
Next, `O=C(CCC(=O)OCC(=O)c1ccc(Br)cc1)Nc1cccc2cccnc12`: > 42 µM (inactive); `O=C(OCCCN=C1NS(=O)(=O)c2ccccc21)c1cccs1`: > 42 µM (inactive); `COc1ccc(/C=C(/C#N)S(=O)(=O)c2ccc(C)cc2)cc1`: > 21 µM (inactive).
Regarding `O=C(Nc1ccc(Cl)cc1Cl)c1cccc(N2C(=O)C=CC2=O)c1`, the AC50 is > 42 µM (inactive).
In the case of `Cc1c(=O)n(OCc2ccccn2)c2ccccc2[n+]1[O-]`, the AC50 is > 42 µM (inactive).
With `CN(C)c1ccc(/C=C/c2cccc[n+]2[O-])cc1`, the AC50 is > 42 µM (inactive).
Turning to `O=C1N=C(N2CCN(c3ccccc3)CC2)SC1Cc1ccccc1` (centres undefined), the AC50 was > 42 µM (inactive).
Next, `O=C1C2C(c3ccccc3)CC=CC2[C@H](c2ccc3ccccc3c2)N1Cc1ccccc1` (some centres undefined): > 42 µM (inactive); `Cc1cccc(N2CCN(CCCNC(=O)c3ccc(NC(=O)C4=CSCCO4)cc3)CC2C)c1` (centres undefined): > 42 µM (inactive).
Next, `CCN(CC(=O)N1CCCCCC1)S(=O)(=O)c1ccc(Cl)cc1`: > 42 µM (inactive).
Take `COc1ccccc1C(=O)NC(=O)COC(=O)Cc1ccccc1[N+](=O)[O-]`: the AC50 is > 42 µM (inactive).
Regarding `COc1ccc(C(=O)Nn2c(SCC(=O)NCc3ccccc3)nc3ccccc3c2=O)cc1`, the AC50 was > 42 µM (inactive).
On to `C/C(=N\NC(=O)Cc1csc(N2CCOCC2)n1)c1ccccc1`, for which the AC50 is > 42 µM (inactive).
Turning to `Clc1cnc(Oc2ccc(Oc3ncc(Cl)cc3Cl)cc2)c(Cl)c1`, the AC50 is > 42 µM (inactive).
With `CCCCCC(=O)Nc1ccc(-c2csc(N)n2)cc1` the figure was > 42 µM (inactive); with `O=C(CSc1nnc(-c2ccccc2Cl)o1)Oc1ccc(Br)cc1`, > 42 µM (inactive); with `COc1ccc(NC(=O)Cn2c(=O)cnc3ccccc32)cc1S(=O)(=O)N1CCCCC1`, > 42 µM (inactive).
On to `CC(=O)c1cccc(NC(=O)CNC(=O)c2sc3ccccc3c2Cl)c1`, for which the AC50 is > 42 µM (inactive).
Take `Cc1cc2c3c(c1)C1(SCC(=O)N1c1ccc(F)cc1)C(=O)N3C(C)(C)CC2C` (centres undefined): the AC50 was > 42 µM (inactive).
On to `O=C(NCc1cccnc1)C1CCN(S(=O)(=O)c2cccnc2)CC1`, for which the AC50 was > 42 µM (inactive).
Turning to `C/C(=N\N=C(c1ccccc1)c1ccccc1)c1ccco1`, the AC50 is > 42 µM (inactive).
Next, `COCc1[nH][nH]c(=O)c1C=Nc1ccc(OC(F)(F)F)cc1`: > 42 µM (inactive); `Cc1ccccc1NC(=O)COC(=O)C1C2CC3OC(=O)C1C3C2` (centres undefined): > 42 µM (inactive); `O=S(=O)(Nc1ccc(N2CCOCC2)cc1)c1cccs1`: > 42 µM (inactive).
With `CCCC(=O)NC(C)c1nc2ccccc2[nH]1` (centres undefined), the AC50 was > 42 µM (inactive).
For `COc1cccc(C(=O)N2CCN(S(=O)(=O)Cc3ccccc3)CC2)c1OC`, the AC50 was > 42 µM (inactive).
For the molecule `CCC(C)[C@H](NC(=O)Nc1ccc(S(N)(=O)=O)cc1)C(=O)OC` (some centres undefined), the AC50 was > 42 µM (inactive).
As for `CCOC(=O)C(NC(=O)c1ccccc1)(N1CCOCC1)C(F)(F)F` (centres undefined), the AC50 was > 42 µM (inactive).
Take `Cc1ccccc1C(=O)NNC(=O)/C=C\C(=O)O`: the AC50 was > 42 µM (inactive).
With `Nc1ccc(S(=O)(=O)NNC(=O)C(=O)NNc2ccccc2)cc1` the figure was > 42 µM (inactive).
Turning to `Cc1c(Cl)cccc1NC(=S)NCCCN(C)C`, the AC50 was > 42 µM (inactive).
As to `CSc1nsc(SCC(=O)Nc2cccc(C(=O)O)c2)n1`, the AC50 was > 42 µM (inactive).
Consider `C=CCNC(=O)NC(=O)COC(=O)/C(C#N)=C/c1cc(C)n(CC(C)C)c1C`, for which the AC50 is > 42 µM (inactive).
With `COc1ccc(C2=NN(C(=S)Nc3ccccc3)C(c3ccccc3)C2)cc1` (centres undefined), the AC50 is > 42 µM (inactive).
